From patent US11607422B2, “Uttroside B and derivatives thereof as therapeutics for hepatocellular carcinoma” (Rajiv Gandhi Centre for Biotechnology, an Autonomous …, priority 2016, dated 2023)

Legend:
[1] = system: A549; experiment: MTT cell viability assay in A549 cells; type: cell-based; conditions: 72 h
Experimental: FIG. 2A is a graph comparison of IC50 of Uttroside B in a panel of cancer cells of different origin. The cancer cell lines HeLa, A375, HepG2, MDA-MB-231, HL 60, A549 and HCT116 were treated with Uttroside B as indicated, incubated for 72 h and the cell viability was assessed by MTT assay. FIG. 2B is a graph showing dose dependent effect of Uttroside B in the liver cancer cell lines and in normal immortalized hepatocytes. The liver cancer cell lines HepG2, Hep3B, SKHEP-1, Huh-7 and normal hepatocytes (Chang liver), were treated with Uttroside B incubated for 72 h and the cell viability was assessed by MTT assay. FIG. 2C is a graph comparison of IC50 of Uttroside B with sorafenib. HepG2 cells were treated with Uttroside B as indicated, incubated for 72 h, and the cell viability was assessed by MTT assay. […] The clones developed were counted and plotted as a graph. Colony containing more than four cells was counted as one clone. […]
MTT [3-(4,5-dimethylthiazole-2-yl)-2,5-diphenyltetrazolium bromide] assay is a standard colorimetric assay, suitable for analyzing proliferation, viability, and cytotoxicity. […] After overnight incubation, cells were treated with different concentrations of organic extracts (25-250 μg/ml) of S. nigrum and the isolated compound Uttroside B (250-1250 nM) for 72 h and cytotoxicity was measured. […]

[2] = system: HepG2 xenograft tumors; experiment: HepG2-xenograft model in NOD-SCID mice; type: in vivo
Experimental: Our next attempt was to validate the anticancer potential of Uttroside B against hepatic cancer, using an in vivo HepG2-xenograft model in NOD-SCID mice. The HepG2 cells suspended in matrigel were subcutaneously injected in the flank region of the mice. The study has been schematically represented in FIG. 6A. Uttroside B, dissolved in PBS, was administered after 15 days of tumor cell implantation when the tumor attained a size of 50-100 mm^3 approximately. Uttroside B (10 mg/kg bw) was injected intraperitoneally, thrice weekly for four weeks. […] The size of the tumor was measured using Vernier calipers every week and the corresponding tumor volume was calculated. […] However, upon sacrifice, very small tumors were observed beneath the skin of animals treated with Uttroside B too, though the size was drastically less compared to that of control animals [FIG. 6B-6C]. […] Although this study was in a mouse the skilled artisan knows that that dose may be converted to human equivalent dosage by simple math. For example the 10 mg/kg body weight for a mouse would convert to a 0.8 mg/kg body weight for a human and result in a range from 0.05 to 1.2 mg/kg body weight.
In vivoHepG2-Xenograft model: All animal studies were performed in accordance with the protocols approved by Institute Animal Ethical Committee IAEC No: 151(b)/RUBY/2012. An ectopic xenograft model in NOD-SCID (NOD.CB17-Prkdcscid/J) mice was used for evaluating the anti-cancer properties of Uttroside B. The animals required for this study were obtained from Animal Research Facility of Rajiv Gandhi Centre for Biotechnology and were fed with standard food pellets and autoclaved water ad libitum. Animal handling, tumor induction, drug treatment and tissue collection were performed in sterile conditions.
Evaluation of the anticancer activity of Uttroside B, isolated from S. nigrum in human liver cancer (HepG2)-xenograft model: xenografts models were established in NOD-SCID mice as described in literature.^10 Male NOD-SCID (NOD.CB17-Prkdc^scid/J) mice of age 6-8 weeks were used for the study. Tumors were induced by subcutaneous injection of HepG2 cells (7×10^6 cells in 100 μL matrigel) in the lower right or left flank of mice and were allowed to grow for a period of two weeks to attain a size of approximately 50-100 mm^3 as measured by Vernier calipers. The mice were then randomly grouped into control and treatment group of 9 animals each. The treatment groups were injected intraperitoneally with Uttroside B (10 mg/kg doses thrice weekly) for one month. Tumor volume was measured every seven days to evaluate tumor growth and drug response. The animals were sacrificed at the end of the study and tumor samples were collected for histopathological and immunohistochemical analysis.
Histopathology: The tissue cryo-sections were washed with PBS (5 min, 2 times) and distilled water for 5 min. Then the sections were stained with hematoxylin for 2 min. Excess stain was washed off and the slides were dipped in differentiation solution for 1-2 s. They were then kept in tap water for 10 min and 70% Isopropyl alcohol for 5 min respectively and were counter stained with eosin solution for 1 min. The sections were then transferred to 100% Isopropyl alcohol and kept for 2 min, cleared in xylene for 1 h and were mounted using DPX. Stained sections were observed using a light microscope and were photographed. The pathology of liver and tumor tissue sections were examined and verified by Dr. Sankar Sundaram, Professor of Pathology, Medical College, Thiruvananthapuram.
Immunohistochemistry of xenograft tissue sections: Immunohistochemical analysis of various proteins in the xenograft tumor tissue sections was performed using the detection kit, as per manufacturer's protocol Super Sensitive™ Polymer-HRP IHC Detection System (Biogenex, Calif., USA). Paraformaldehyde-fixed OCT-embedded tissue sections were kept in PBS for 15 min. […]

[3] = 10 mg/kg bw i.p. thrice weekly, four weeks

C[C@H](CC[C@@]1(O)O[C@H]2C[C@H]3[C@@H]4CC[C@H]5C[C@@H](O[C@@H]6O[C@H](CO)[C@H](O[C@@H]7O[C@H](CO)[C@@H](O)[C@H](O[C@@H]8OC[C@@H](O)[C@H](O)[C@H]8O)[C@H]7O[C@@H]7O[C@H](CO)[C@@H](O)[C@H](O)[C@H]7O)[C@H](O)[C@H]6O)CC[C@]5(C)[C@H]4CC[C@]3(C)[C@H]2[C@@H]1C)CO[C@@H]1O[C@H](CO)[C@@H](O)[C@H](O)[C@H]1O [Uttroside B]
IC50 [1]: 1000 nM | cleaved PARP expression in tumor sections (IHC) [2, 3]: Significant upregulation in the expression of cleaved PARP | externally visible tumor at end of treatment [2, 3]: no tumor was visible externally | histopathology (H&E) of tumor mass [2, 3]: massive destruction of cells | tumor volume vs control [2, 3]: significantly low | tissue level expression of LC3 (IHC) ([2]; HepG2 xenograft tumor sections): very high | tissue level expression of beclin-1 (IHC) ([2]; HepG2 xenograft tumor sections): very high | phosphorylation status of p70S6K and 4E-BP-1 in xenograft tumor tissue ([2]; immunohistochemical staining, NOD-SCID mice): significant down-regulation in the phosphorylation status
